Tests used:
Aspergillus fumigatus [1] = assay: Antifungal activity against Aspergillus fumigatus F69827; type: functional
Aspergillus fumigatus [2] = assay: Antifungal activity against Aspergillus fumigatus M44251; type: functional
Aspergillus fumigatus [3] = assay: Antifungal activity against Aspergillus fumigatus ATCC 280995; type: functional
Aspergillus fumigatus [4] = assay: Antifungal activity against Aspergillus fumigatus ATCC 280996; type: functional
Aspergillus fumigatus [5] = assay: Antifungal activity against Aspergillus fumigatus ATCC 280997; type: functional
[6] = Cytotoxicity against human Molt 4/C8 cells; type: functional, cell-based; conditions: Molt4/C8
CCRF-CEM = assay: Cytotoxicity against human CEM cells; type: functional, cell-based
L1210 = assay: Cytotoxicity against mouse L1210 cells; type: functional, cell-based
[7] = Cytotoxicity against human colon cancer cells; type: functional; conditions: Cancer cell lines
[8] = Cytotoxicity against human leukemia cells; type: functional; conditions: Leukemia cell
Mus musculus = assay: Neurotoxicity in mouse assessed as mortality up to 300 mg/kg after 4 hrs; type: toxicity, organism-based; set-up: dose 300 mg/kg; conditions: in vivo
[9] = biological target: T1, Glycylpeptide N-tetradecanoyltransferase 1 (Homo sapiens) (UniProt P30419); assay: Inhibition of human NMT at 50 uM
T1 sequence (whole entry): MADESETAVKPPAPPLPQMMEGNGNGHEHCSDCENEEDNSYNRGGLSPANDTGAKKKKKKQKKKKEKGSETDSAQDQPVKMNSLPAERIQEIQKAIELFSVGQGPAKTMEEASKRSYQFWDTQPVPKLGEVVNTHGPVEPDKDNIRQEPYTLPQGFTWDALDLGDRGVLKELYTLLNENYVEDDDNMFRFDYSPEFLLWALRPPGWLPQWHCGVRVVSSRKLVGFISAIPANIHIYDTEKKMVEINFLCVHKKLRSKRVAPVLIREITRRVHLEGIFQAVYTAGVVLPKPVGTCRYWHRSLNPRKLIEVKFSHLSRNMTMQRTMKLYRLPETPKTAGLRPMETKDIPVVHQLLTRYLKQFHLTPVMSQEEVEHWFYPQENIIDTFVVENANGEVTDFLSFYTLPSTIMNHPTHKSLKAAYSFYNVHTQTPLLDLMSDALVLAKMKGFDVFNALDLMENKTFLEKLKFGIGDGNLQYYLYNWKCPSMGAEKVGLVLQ

[10] = biological target: T1, Glycylpeptide N-tetradecanoyltransferase 1 (Homo sapiens); assay: Inhibition of human NMT at 100 uM

Compound	MIC (Aspergillus fumigatus [1])	MIC (Aspergillus fumigatus [2])	MIC (Aspergillus fumigatus [3])	MIC (Aspergillus fumigatus [4])	MIC (Aspergillus fumigatus [5])	IC50 [6]	IC50 (CCRF-CEM)	IC50 (L1210)	GI50 [7]	GI50 [8]	Activity (Mus musculus)	inhibition [9]	inhibition [10]
C[C@@H](c1ncncc1F)[C@](O)(Cn1cncn1)c1ccc(F)cc1F [VORICONAZOLE]	≤ 0.25 µg/mL	≤ 0.25 µg/mL	≤ 0.25 µg/mL	≤ 0.25 µg/mL	≤ 0.25 µg/mL	–	–	–	–	–	–	–	–
O=C(/C=C/C(=O)N1C/C(=C\c2ccccc2)C(=O)/C(=C/c2ccccc2)C1)Nc1ccc(Cl)cc1	> 50 µg/mL	> 50 µg/mL	> 50 µg/mL	> 50 µg/mL	> 50 µg/mL	1800 nM	840 nM	7800 nM	1150 nM	589 nM	Non-toxic	–	–
Cc1cccc(C)c1NC(=O)/C=C/C(=O)N1C/C(=C\c2ccccc2)C(=O)/C(=C/c2ccccc2)C1	> 50 µg/mL	> 50 µg/mL	> 50 µg/mL	> 50 µg/mL	> 50 µg/mL	6600 nM	7400 nM	22000 nM	–	–	Non-toxic	–	–
O=C(/C=C/C(=O)N1C/C(=C\c2ccc([N+](=O)[O-])cc2)C(=O)/C(=C/c2ccc([N+](=O)[O-])cc2)C1)Nc1ccccc1	> 50 µg/mL	> 50 µg/mL	> 50 µg/mL	> 50 µg/mL	> 50 µg/mL	360 nM	370 nM	1800 nM	–	–	Non-toxic	–	–
CC(=O)c1ccc(NC(=O)/C=C/C(=O)N2C/C(=C\c3ccc([N+](=O)[O-])cc3)C(=O)/C(=C/c3ccc([N+](=O)[O-])cc3)C2)cc1	> 50 µg/mL	> 50 µg/mL	> 50 µg/mL	> 50 µg/mL	> 50 µg/mL	390 nM	360 nM	1400 nM	–	–	Non-toxic	–	–
O=C(/C=C/C(=O)N1C/C(=C\c2ccc([N+](=O)[O-])cc2)C(=O)/C(=C/c2ccc([N+](=O)[O-])cc2)C1)Nc1ccc(Cl)cc1	> 50 µg/mL	> 50 µg/mL	> 50 µg/mL	> 50 µg/mL	> 50 µg/mL	1200 nM	810 nM	3600 nM	–	–	Non-toxic	–	–
Cc1ccc(NC(=O)/C=C/C(=O)N2C/C(=C\c3ccc([N+](=O)[O-])cc3)C(=O)/C(=C/c3ccc([N+](=O)[O-])cc3)C2)cc1	> 50 µg/mL	> 50 µg/mL	> 50 µg/mL	> 50 µg/mL	> 50 µg/mL	700 nM	890 nM	4400 nM	–	–	Non-toxic	50%	–
COc1ccc(NC(=O)/C=C/C(=O)N2C/C(=C\c3ccc([N+](=O)[O-])cc3)C(=O)/C(=C/c3ccc([N+](=O)[O-])cc3)C2)cc1	> 50 µg/mL	> 50 µg/mL	> 50 µg/mL	> 50 µg/mL	> 50 µg/mL	940 nM	760 nM	2900 nM	–	–	Non-toxic	–	–
CC(=O)c1ccc(NC(=O)/C=C/C(=O)N2C/C(=C\c3ccccc3)C(=O)/C(=C/c3ccccc3)C2)cc1	> 50 µg/mL	> 50 µg/mL	> 50 µg/mL	> 50 µg/mL	> 50 µg/mL	1400 nM	1700 nM	5500 nM	–	–	Non-toxic	–	–
O=c1[nH]cc(F)c(=O)[nH]1 [FLUOROURACIL]	–	–	–	–	–	–	–	–	5750 nM	52500 nM	–	–	–
O=C(/C=C/C(=O)N1C/C(=C\c2ccccc2)C(=O)/C(=C/c2ccccc2)C1)Nc1ccc(Cl)c(Cl)c1	> 50 µg/mL	> 50 µg/mL	> 50 µg/mL	> 50 µg/mL	> 50 µg/mL	1700 nM	350 nM	7500 nM	646 nM	447 nM	Non-toxic	–	50%
Cc1ccc(NC(=O)/C=C/C(=O)N2C/C(=C\c3ccccc3)C(=O)/C(=C/c3ccccc3)C2)cc1C	> 50 µg/mL	> 50 µg/mL	> 50 µg/mL	> 50 µg/mL	> 50 µg/mL	7900 nM	7100 nM	31000 nM	–	–	Non-toxic	–	–
Cc1ccc(NC(=O)/C=C/C(=O)N2C/C(=C\c3ccccc3)C(=O)/C(=C/c3ccccc3)C2)cc1	> 50 µg/mL	> 50 µg/mL	> 50 µg/mL	> 50 µg/mL	> 50 µg/mL	660 nM	1100 nM	5800 nM	–	–	Non-toxic	50%	–
N[C@@H](Cc1ccc(N(CCCl)CCCl)cc1)C(=O)O [MELPHALAN]	–	–	–	–	–	–	–	–	50100 nM	3980 nM	–	–	–
COc1ccc(NC(=O)/C=C/C(=O)N2C/C(=C\c3ccccc3)C(=O)/C(=C/c3ccccc3)C2)cc1	> 50 µg/mL	> 50 µg/mL	> 50 µg/mL	> 50 µg/mL	> 50 µg/mL	1100 nM	510 nM	6800 nM	759 nM	105 nM	Non-toxic	–	–
Cc1ccc(NC(=O)/C=C/C(=O)N2C/C(=C\c3ccc([N+](=O)[O-])cc3)C(=O)/C(=C/c3ccc([N+](=O)[O-])cc3)C2)cc1C	> 50 µg/mL	> 50 µg/mL	> 50 µg/mL	> 50 µg/mL	> 50 µg/mL	660 nM	700 nM	4900 nM	–	–	Non-toxic	–	–
O=C(/C=C/C(=O)N1C/C(=C\c2ccccc2)C(=O)/C(=C/c2ccccc2)C1)Nc1ccc([N+](=O)[O-])cc1	> 50 µg/mL	> 50 µg/mL	> 50 µg/mL	> 50 µg/mL	> 50 µg/mL	31000 nM	40000 nM	40000 nM	–	–	Non-toxic	–	–
Cc1cccc(C)c1NC(=O)/C=C/C(=O)N1C/C(=C\c2ccc([N+](=O)[O-])cc2)C(=O)/C(=C/c2ccc([N+](=O)[O-])cc2)C1	> 50 µg/mL	> 50 µg/mL	> 50 µg/mL	> 50 µg/mL	> 50 µg/mL	210 nM	230 nM	690 nM	–	–	Non-toxic	–	–
O=C(/C=C/C(=O)N1C/C(=C\c2ccc([N+](=O)[O-])cc2)C(=O)/C(=C/c2ccc([N+](=O)[O-])cc2)C1)Nc1ccc([N+](=O)[O-])cc1	> 50 µg/mL	> 50 µg/mL	> 50 µg/mL	> 50 µg/mL	> 50 µg/mL	430 nM	410 nM	1000 nM	–	–	Non-toxic	–	–
O=C(/C=C/C(=O)N1C/C(=C\c2ccc([N+](=O)[O-])cc2)C(=O)/C(=C/c2ccc([N+](=O)[O-])cc2)C1)Nc1ccc(Cl)c(Cl)c1	> 50 µg/mL	> 50 µg/mL	> 50 µg/mL	> 50 µg/mL	> 50 µg/mL	600 nM	380 nM	1700 nM	–	–	Non-toxic	–	50%
O=C(/C=C/C(=O)N1C/C(=C\c2ccccc2)C(=O)/C(=C/c2ccccc2)C1)Nc1ccccc1	> 50 µg/mL	> 50 µg/mL	> 50 µg/mL	> 50 µg/mL	> 50 µg/mL	520 nM	1100 nM	3600 nM	–	–	Non-toxic	–	–

Source: ChEMBL document CHEMBL1149619, “E,E,E-1-(4-Arylamino-4-oxo-2-butenoyl)-3,5-bis(arylidene)-4-piperidones: a topographical study of some novel potent cytotoxins” (Bioorg Med Chem, 2007)
